According to US20240123013A1, “SUPPLEMENT FOR ARTHRITIS AND PSORIASIS” (priority 2021, published 2024):

Assay: Comparison of arthritis gel compositions formulated with different crystalline CBDs (Example 12)
Settings: gels differ only in the crystalline CBD used
Procedure: Two hydroalcoholic arthritis gel compositions are prepared according to Example 2, the only difference being that the crystalline CBD used in the formulation is either of type A (needle-like crystals; FIG. 1) or type B (bunch/cluster-like; FIG. 2).

C=C(C)[C@@H]1CCC(C)=C[C@H]1c1c(O)cc(CCCCC)cc1O [type A CBD, cannabidiol]
Activity of CBD in hydroalcoholic arthritis gel, crystal type A versus type B: significantly more active than type B CBD
Activity of CBD in hydroalcoholic arthritis gel, crystal type A versus type B (listed as crystal structure A): significantly more potent
